Reference: ChEMBL document CHEMBL6078677, “Discovery and optimization of tetrahydroacridine derivatives as a novel class of antibiotics against multidrug-resistant Gram-positive pathogens by targeting type I signal peptidase and disrupting bacterial membrane” (Eur J Med Chem, 2025)
≈ marks a conversion by molar mass, not a printed value. Numbered stars: 1 amine (or outer) side, 2 acyl side, 3 side chain; on linkers, the order of the positions; unused ones are H or OH. Bridge positions count the residues as written; N and C are the ends. Square brackets hold non-standard residues; d marks the D form. Side chains are listed from the residue outwards. Peptide text beside a SMILES is read from it. * marks the point of attachment. X1 = C[C@@H](O)[C@H](CN([C@@H](CCN)C(=O)[*:2])[*:1])N[*:3]; Octanoyl(6-Me) = CCC(C)CCCCC(=O)*; Dab = NCC[C@H](N)C(=O)O

Legend:
Klebsiella pneumoniae = experiment: Antimicrobial activity against Klebsiella pneumoniae 9-1 assessed as inhibition of visible growth of bacteria incubated for 20 hrs by broth microdilution method; format: functional
Salmonella enteritidis = experiment: Antimicrobial activity against Salmonella enteritis S1 assessed as inhibition of visible growth of bacteria incubated for 20 hrs by broth microdilution method; format: functional, Salmonella enterica subsp. enterica serovar Enteritidis; conditions: Salmonella enterica
Pseudomonas aeruginosa [1] = experiment: Antimicrobial activity against Pseudomonas aeruginosa PA14 assessed as inhibition of visible growth of bacteria incubated for 20 hrs by broth microdilution method; format: functional
Acinetobacter baumannii [2] = experiment: Antimicrobial activity against Acinetobacter baumannii AB11 assessed as inhibition of visible growth of bacteria incubated for 20 hrs by broth microdilution method; format: functional
Acinetobacter baumannii [3] = experiment: Antimicrobial activity against Acinetobacter baumannii 7979 assessed as inhibition of visible growth of bacteria incubated for 20 hrs by broth microdilution method; format: functional
Escherichia coli = experiment: Antimicrobial activity against Escherichia coli ATCC 25922 assessed as inhibition of visible growth of bacteria incubated for 20 hrs by broth microdilution method; format: functional
Pseudomonas aeruginosa [4] = experiment: Antimicrobial activity against Pseudomonas aeruginosa PA01 assessed as inhibition of visible growth of bacteria incubated for 20 hrs by broth microdilution method; format: functional
Streptococcus pyogenes = experiment: Antimicrobial activity against Streptococcus pyogenes DL02 harboring erythromycin-resistance rRNA methylase B assessed as inhibition of visible growth of bacteria incubated for 20 hrs by broth microdilution method; format: functional
Staphylococcus aureus [5] = experiment: Antimicrobial activity against Staphylococcus aureus YZSA-15 harboring erythromycin resistance rRNA methylase C and vancomycin resistance locus assessed as inhibition of visible growth of bacteria incubated for 20 hrs by broth microdilution method; format: functional
Enterococcus faecium [6] = experiment: Antimicrobial activity against Enterococcus faecium MC38 harboring erythromycin resistance rRNA methylase B and oxazolidinone-phenicol transferable resistance gene assessed as inhibition of visible growth of bacteria incubated for 20 hrs by broth microdilution method; format: functional
Enterococcus faecium [7] = experiment: Antimicrobial activity against Enterococcus faecium QF31 harboring erythromycin resistance rRNA methylase B and chloramphenicol-florfenicol resistance methylase assessed as inhibition of visible growth of bacteria incubated for 20 hrs by broth microdilution method; format: functional
Enterococcus faecium [8] = experiment: Antimicrobial activity against Enterococcus faecium HFY01 assessed as inhibition of visible growth of bacteria incubated for 20 hrs by broth microdilution method; format: functional
Enterococcus faecalis [9] = experiment: Antimicrobial activity against Enterococcus faecalis J2 harboring erythromycin-resistance rRNA methylase B and oxazolidinone phenicol transferable resistance gene assessed as inhibition of visible growth of bacteria incubated for 20 hrs by broth microdilution method; format: functional
Staphylococcus aureus [10] = experiment: Antimicrobial activity against Staphylococcus aureus YZSA-21 harboring erythromycin resistance rRNA methylase C assessed as inhibition of visible growth of bacteria incubated for 20 hrs by broth microdilution method; format: functional
Enterococcus faecalis [11] = experiment: Antimicrobial activity against Enterococcus faecalis JH2-2 assessed as inhibition of visible growth of bacteria incubated for 20 hrs by broth microdilution method; format: functional
Staphylococcus aureus [12] = experiment: Antimicrobial activity against Staphylococcus aureus YZSA-24 harboring erythromycin resistance rRNA methylase C and methicillin resistance gene resistance locus assessed as inhibition of visible growth of bacteria incubated for 20 hrs by broth microdilution method; format: functional
Streptococcus agalactiae = experiment: Antimicrobial activity against Streptococcus agalactiae DL03 harboring erythromycin-resistance rRNA methylase B assessed as inhibition of visible growth of bacteria incubated for 20 hrs by broth microdilution method; format: functional
Staphylococcus aureus [13] = experiment: Antimicrobial activity against Staphylococcus aureus ATCC 29213 assessed as inhibition of visible growth of bacteria incubated for 20 hrs by broth microdilution method; format: functional
Streptococcus suis [14] = experiment: Antimicrobial activity against Streptococcus suis P1/7 assessed as inhibition of visible growth of bacteria incubated for 20 hrs by broth microdilution method; format: functional
Enterococcus faecalis [15] = experiment: Antimicrobial activity against Enterococcus faecalis ES01 harboring erythromycin-resistance rRNA methylase B and vanB-type vancomycin-resistance locus assessed as inhibition of visible growth of bacteria incubated for 20 hrs by broth microdilution method; format: functional
Streptococcus suis [16] = experiment: microbe, parasite or virus in culture; format: functional; conditions: SH0918, time 20 hrs
Description: Antimicrobial activity against Streptococcus suis SH0918 harboring erythromycin-resistance rRNA methylase B, tetracycline efflux protein O and oxazolidinone phenicol transferable resistance gene assessed as inhibition of visible growth of bacteria incubated for 20 hrs by broth microdilution method

Enterococcus faecalis [17] = experiment: microbe, parasite or virus in culture; format: functional; conditions: SF23-1, time 20 hrs
Description: Antimicrobial activity against Enterococcus faecalis SF23-1 harboring erythromycin-resistance rRNA methylase B, tetracycline efflux protein L and chloramphenicol-florfenicol resistance methylase assessed as inhibition of visible growth of bacteria incubated for 20 hrs by broth microdilution method

Staphylococcus aureus [18] = experiment: microbe, parasite or virus in culture; format: functional; conditions: M147-2, time 20 hrs
Description: Antimicrobial activity against Staphylococcus aureus M147-2 harboring erythromycin resistance rRNA methylase B, tetracycline efflux protein L and chloramphenicol-florfenicol resistance methylase assessed as inhibition of visible growth of bacteria incubated for 20 hrs by broth microdilution method

Staphylococcus aureus [19] = experiment: microbe, parasite or virus in culture; format: functional; conditions: M92-1, time 20 hrs
Description: Antimicrobial activity against Staphylococcus aureus M92-1 harboring erythromycin resistance rRNA methylase B, tetracycline efflux protein L and oxazolidinone-phenicol transferable resistance gene assessed as inhibition of visible growth of bacteria incubated for 20 hrs by broth microdilution method

Q: For `C[C@H]1[C@H](NC(=O)/C(=N\OC(C)(C)C(=O)O)c2csc(N)n2)C(=O)N1S(=O)(=O)O` [AZTREONAM], which MIC (Klebsiella pneumoniae) is on record?
A: The MIC was 2 µg/mL (≈ 4.59 µM).

Q: What about the MIC (Salmonella enteritidis) of the same compound?
A: The MIC was 2 µg/mL (≈ 4.59 µM).

Q: What about the MIC (Pseudomonas aeruginosa [1]) of the same compound?
A: Its MIC is 4 µg/mL (≈ 9.19 µM).

Q: And the MIC (Acinetobacter baumannii [2])?
A: The MIC was > 32 µg/mL.

Q: What about the MIC (Acinetobacter baumannii [3]) of the same compound?
A: Its MIC is > 32 µg/mL.

Q: And the MIC (Escherichia coli)?
A: Its MIC is 0.25 µg/mL (≈ 0.574 µM).

Q: And the MIC (Pseudomonas aeruginosa [4])?
A: The MIC was 2 µg/mL (≈ 4.59 µM).

Q: Which results are given for `C[C@H]1COc2c(N3CCN(C)CC3)c(F)cc3c(=O)c(C(=O)O)cn1c23` [LEVOFLOXACIN ANHYDROUS]?
A: MIC (Klebsiella pneumoniae): > 32 µg/mL; MIC (Salmonella enteritidis): 0.5 µg/mL (≈ 1.38 µM); MIC (Pseudomonas aeruginosa [1]): 0.125 µg/mL (≈ 0.346 µM); MIC (Acinetobacter baumannii [2]): 0.125 µg/mL (≈ 0.346 µM); MIC (Acinetobacter baumannii [3]): > 32 µg/mL; MIC (Escherichia coli): 0.125 µg/mL (≈ 0.346 µM); MIC (Pseudomonas aeruginosa [4]): 0.5 µg/mL (≈ 1.38 µM)

Q: How did the MIC (Klebsiella pneumoniae) turn out when `CC(C)CCCCC(=O)N[C@@H](CCN)C(=O)N[C@@H](CN[C@@H](CCN)C(=O)N[C@H]1CCNC(=O)[C@H]([C@@H](C)O)NC(=O)[C@H](CCN)NC(=O)[C@H](CCN)NC(=O)[C@H](CC(C)C)NC(=O)[C@@H](CC(C)C)NC(=O)[C@H](CCN)NC1=O)[C@@H](C)O.CCC(C)CCCCC(=O)N[C@@H](CCN)C(=O)N[C@@H](CN[C@@H](CCN)C(=O)N[C@H]1CCNC(=O)[C@H]([C@@H](C)O)NC(=O)[C@H](CCN)NC(=O)[C@H](CCN)NC(=O)[C@H](CC(C)C)NC(=O)[C@@H](CC(C)C)NC(=O)[C@H](CCN)NC1=O)[C@@H](C)O` (stereo partly drawn) (H-[X1]([Dab-Octanoyl(6-Me)])[Dab][Dab][dL]L[Dab][Dab]T; lactam 2-C) was run?
A: Its MIC is 0.5 µg/mL.

Q: What about the MIC (Salmonella enteritidis) of the same compound?
A: Its MIC is 0.5 µg/mL.

Q: What about the MIC (Pseudomonas aeruginosa [1]) of the same compound?
A: Its MIC is < 0.06 µg/mL.

Q: What about the MIC (Acinetobacter baumannii [2]) of the same compound?
A: Its MIC is 8 µg/mL.

Q: What about the MIC (Acinetobacter baumannii [3]) of the same compound?
A: The MIC was < 0.06 µg/mL.

Q: And the MIC (Escherichia coli)?
A: The MIC was 1 µg/mL.

Q: And the MIC (Pseudomonas aeruginosa [4])?
A: Its MIC is 0.125 µg/mL.

Q: Which results are given for `O=C(O)c1cn(C2CC2)c2cc(N3CCNCC3)c(F)cc2c1=O` [CIPROFLOXACIN]?
A: MIC (Streptococcus pyogenes): 1 µg/mL (≈ 3.02 µM); MIC (Staphylococcus aureus [5]): 0.25 µg/mL (≈ 0.754 µM); MIC (Enterococcus faecium [6]): 8 µg/mL (≈ 24.1 µM); MIC (Enterococcus faecium [7]): 2 µg/mL (≈ 6.04 µM); MIC (Enterococcus faecium [8]): 1 µg/mL (≈ 3.02 µM); MIC (Enterococcus faecalis [9]): 0.5 µg/mL (≈ 1.51 µM); MIC (Staphylococcus aureus [10]): 0.5 µg/mL (≈ 1.51 µM); MIC (Enterococcus faecalis [11]): 0.5 µg/mL (≈ 1.51 µM); MIC (Staphylococcus aureus [12]): 4 µg/mL (≈ 12.1 µM); MIC (Streptococcus agalactiae): 16 µg/mL (≈ 48.3 µM); MIC (Staphylococcus aureus [13]): 1 µg/mL (≈ 3.02 µM); MIC (Streptococcus suis [14]): 0.125 µg/mL (≈ 0.377 µM); MIC (Enterococcus faecalis [15]): > 32 µg/mL; MIC (Streptococcus suis [16]): 16 µg/mL (≈ 48.3 µM); MIC (Enterococcus faecalis [17]): 16 µg/mL (≈ 48.3 µM)

Q: With `CN[C@H](CC(C)C)C(=O)N[C@H]1C(=O)N[C@@H](CC(N)=O)C(=O)N[C@H]2C(=O)N[C@H]3C(=O)N[C@H](C(=O)N[C@H](C(=O)O)c4cc(O)cc(O)c4-c4cc3ccc4O)[C@H](O)c3ccc(c(Cl)c3)Oc3cc2cc(c3O[C@@H]2O[C@H](CO)[C@@H](O)[C@H](O)[C@H]2O[C@H]2C[C@](C)(N)[C@H](O)[C@H](C)O2)Oc2ccc(cc2Cl)[C@H]1O` [VANCOMYCIN] as the compound, how does the MIC (Streptococcus pyogenes) read?
A: The MIC was < 0.06 µg/mL.

Q: And the MIC (Staphylococcus aureus [5])?
A: The MIC was 16 µg/mL (≈ 11 µM).

Q: What about the MIC (Enterococcus faecalis [9]) of the same compound?
A: The MIC was 2 µg/mL (≈ 1.38 µM).

Q: And the MIC (Enterococcus faecalis [11])?
A: The MIC was 2 µg/mL (≈ 1.38 µM).

Q: What about the MIC (Staphylococcus aureus [12]) of the same compound?
A: The MIC was < 0.06 µg/mL.

Q: What about the MIC (Streptococcus agalactiae) of the same compound?
A: The MIC was 0.125 µg/mL (≈ 0.0863 µM).

Q: What about the MIC (Streptococcus suis [14]) of the same compound?
A: Its MIC is < 0.06 µg/mL.

Q: And the MIC (Enterococcus faecalis [15])?
A: The MIC was 16 µg/mL (≈ 11 µM).

Q: What about the MIC (Streptococcus suis [16]) of the same compound?
A: Its MIC is < 0.06 µg/mL.

Q: What about the MIC (Enterococcus faecalis [17]) of the same compound?
A: Its MIC is 2 µg/mL (≈ 1.38 µM).

Q: `CNC(C)[C@@H]1CC[C@@H](N)[C@@H](O[C@H]2[C@H](O)[C@@H](O[C@H]3OC[C@](C)(O)[C@H](NC)[C@H]3O)[C@H](N)C[C@@H]2N)O1.CN[C@@H]1[C@@H](O)[C@@H](O[C@@H]2[C@@H](O)[C@H](O[C@H]3O[C@H](C(C)N)CC[C@H]3N)[C@@H](N)C[C@H]2N)OC[C@]1(C)O.CN[C@@H]1[C@@H](O)[C@@H](O[C@@H]2[C@@H](O)[C@H](O[C@H]3O[C@H](CN)CC[C@H]3N)[C@@H](N)C[C@H]2N)OC[C@]1(C)O` (some centres undefined) was tested. Which MIC (Klebsiella pneumoniae) did it give?
A: Its MIC is 0.5 µg/mL.

Q: And the MIC (Salmonella enteritidis)?
A: Its MIC is 0.25 µg/mL.

Q: And the MIC (Streptococcus pyogenes)?
A: The MIC was 1 µg/mL.

Q: And the MIC (Pseudomonas aeruginosa [1])?
A: Its MIC is < 0.06 µg/mL.

Q: And the MIC (Staphylococcus aureus [5])?
A: Its MIC is 0.5 µg/mL.

Q: What about the MIC (Enterococcus faecium [6]) of the same compound?
A: The MIC was > 32 µg/mL.

Q: And the MIC (Enterococcus faecium [7])?
A: The MIC was > 32 µg/mL.

Q: What about the MIC (Enterococcus faecium [8]) of the same compound?
A: The MIC was < 0.06 µg/mL.

Q: And the MIC (Staphylococcus aureus [18])?
A: Its MIC is 0.5 µg/mL.

Q: What about the MIC (Acinetobacter baumannii [2]) of the same compound?
A: The MIC was < 0.06 µg/mL.

Q: What about the MIC (Enterococcus faecalis [9]) of the same compound?
A: Its MIC is 8 µg/mL.

Q: What about the MIC (Staphylococcus aureus [19]) of the same compound?
A: The MIC was > 32 µg/mL.

Q: And the MIC (Staphylococcus aureus [10])?
A: Its MIC is 0.5 µg/mL.

Q: And the MIC (Enterococcus faecalis [11])?
A: The MIC was 4 µg/mL.

Q: What about the MIC (Staphylococcus aureus [12]) of the same compound?
A: Its MIC is 0.5 µg/mL.

Q: What about the MIC (Streptococcus agalactiae) of the same compound?
A: The MIC was 16 µg/mL.

Q: And the MIC (Staphylococcus aureus [13])?
A: Its MIC is 1 µg/mL.

Q: And the MIC (Streptococcus suis [14])?
A: Its MIC is 4 µg/mL.

Q: And the MIC (Acinetobacter baumannii [3])?
A: Its MIC is > 32 µg/mL.

Q: What about the MIC (Enterococcus faecalis [15]) of the same compound?
A: The MIC was > 32 µg/mL.

Q: And the MIC (Streptococcus suis [16])?
A: Its MIC is > 32 µg/mL.

Q: What about the MIC (Pseudomonas aeruginosa [4]) of the same compound?
A: The MIC was 0.125 µg/mL.

Q: And the MIC (Enterococcus faecalis [17])?
A: Its MIC is 8 µg/mL.
